Our source for the mutagenic call values is PubChem BioAssay AID1259407 (Chemical Carcinogenesis Research Information System (CCRIS), 2018).

In this data set the test system is CCRIS mutagenicity, Ames/micronucleus/aberration tests. The data set is described as follows: CCRIS mutagenicity studies.

Each structure is given as a SMILES string. The source made the active and inactive calls. No rule for the calls is given here.

Consider `O=C1O[C@H]([C@@H](O)CO)C(O)=C1O`, for which the mutagenic call runs as follows: (End Point: IN VITRO CHROMOSOMAL ABERRATIONS, Test System: CHO CELLS, Metabolic Activation: RAT, LIVER, S-9, AROCLOR 1254) “inactive; negative”; (End Point: IN VITRO MICRONUCLEUS, Test System: CHINESE HAMSTER OVARY (CHO-K5), Metabolic Activation: NONE) “active; positive; no statistical analysis was performed”; (End Point: In vitro chromosomal aberrations, Test System: Chinese hamster lung CHL/IU cells, Metabolic Activation: None) “inactive; negative. toxicicity at highest dose”; (End Point: In vitro chromosomal aberrations, Test System: Chinese hamster ovary (CHO) cells, Metabolic Activation: None) “inactive; negative; vitamin c, alone or in combination with glutamine, reduced effect of d”; (End Point: In vitro chromosomal aberrations, Test System: Human peripheral blood lymphocytes, Metabolic Activation: None) “active; positive (structural changes); response at highest dose only”; (End Point: In vivo chromosomal aberrations, Test System: Bone marrow cells, Species: Rat, Strain/Sex: Wistar/Male and female, Route: Oral) “inactive; negative; vitamin c, alone or with glutamine, reduced effect of doxorubicin”. Besides, the mutagenic call by setting is: (Test System: AMES SALMONELLA TYPHIMURIUM, Strain/Indicator: TA97, Metabolic Activation: HAMSTER, LIVER, S-9, AROCLOR 1254 (10 OR 30%), Method: PREINCUBATION) “inactive; negative”; (Test System: AMES SALMONELLA TYPHIMURIUM, Strain/Indicator: TA97, Metabolic Activation: NONE, Method: PREINCUBATION) “inactive; negative”; (Test System: AMES SALMONELLA TYPHIMURIUM, Strain/Indicator: TA97, Metabolic Activation: NONE, Method: STANDARD PLATE) “inactive; negative”; (Test System: AMES SALMONELLA TYPHIMURIUM, Strain/Indicator: TA97, Metabolic Activation: RAT, LIVER, S-9, AROCLOR 1254 (10 OR 30%), Method: PREINCUBATION) “inactive; negative”; (Test System: AMES SALMONELLA TYPHIMURIUM, Strain/Indicator: TA97, Metabolic Activation: RAT, LIVER, S-9, AROCLOR 1254, Method: STANDARD PLATE) “inactive; negative”; (Test System: AMES SALMONELLA TYPHIMURIUM, Strain/Indicator: TA98, Metabolic Activation: HAMSTER, LIVER, S-9, AROCLOR 1254 (10 OR 30%), Method: PREINCUBATION) “inactive; negative”. The mutagenic call by setting is: (Test System: AMES SALMONELLA TYPHIMURIUM, Strain/Indicator: TA98, Metabolic Activation: NONE, Method: PREINCUBATION) “inactive; negative”; (Test System: AMES SALMONELLA TYPHIMURIUM, Strain/Indicator: TA98, Metabolic Activation: NONE, Method: STANDARD PLATE) “inactive; negative”; (Test System: AMES SALMONELLA TYPHIMURIUM, Strain/Indicator: TA98, Metabolic Activation: RAT, LIVER, S-9, AROCLOR 1254 (10 OR 30%), Method: PREINCUBATION) “inactive; negative”; (Test System: AMES SALMONELLA TYPHIMURIUM, Strain/Indicator: TA98, Metabolic Activation: RAT, LIVER, S-9, AROCLOR 1254, Method: STANDARD PLATE) “inactive; negative”; (Test System: AMES SALMONELLA TYPHIMURIUM, Strain/Indicator: TA100, Metabolic Activation: HAMSTER, LIVER, S-9, AROCLOR 1254 (10 OR 30%), Method: PREINCUBATION) “inactive; negative”; (Test System: AMES SALMONELLA TYPHIMURIUM, Strain/Indicator: TA100, Metabolic Activation: NONE, Method: PREINCUBATION) “inactive; negative”. In addition, the mutagenic call reads like this: (Test System: AMES SALMONELLA TYPHIMURIUM, Strain/Indicator: TA100, Metabolic Activation: NONE, Method: STANDARD PLATE) “inactive; negative”; (Test System: AMES SALMONELLA TYPHIMURIUM, Strain/Indicator: TA100, Metabolic Activation: RAT, LIVER, S-9, AROCLOR 1254 (10 OR 30%), Method: PREINCUBATION) “inactive; negative”; (Test System: AMES SALMONELLA TYPHIMURIUM, Strain/Indicator: TA100, Metabolic Activation: RAT, LIVER, S-9, AROCLOR 1254, Method: STANDARD PLATE) “inactive; negative”; (Test System: AMES SALMONELLA TYPHIMURIUM, Strain/Indicator: TA102, Metabolic Activation: NONE, Method: STANDARD PLATE) “inactive; negative”; (Test System: AMES SALMONELLA TYPHIMURIUM, Strain/Indicator: TA104, Metabolic Activation: NONE, Method: STANDARD PLATE) “inactive; negative”; (Test System: AMES SALMONELLA TYPHIMURIUM, Strain/Indicator: TA1535, Metabolic Activation: HAMSTER, LIVER, S-9, AROCLOR 1254 (10 OR 30%), Method: PREINCUBATION) “inactive; negative”. Besides, the mutagenic call runs as follows: (Test System: AMES SALMONELLA TYPHIMURIUM, Strain/Indicator: TA1535, Metabolic Activation: NONE, Method: PREINCUBATION) “inactive; negative”; (Test System: AMES SALMONELLA TYPHIMURIUM, Strain/Indicator: TA1535, Metabolic Activation: RAT, LIVER, S-9, AROCLOR 1254 (10 OR 30%), Method: PREINCUBATION) “inactive; negative”; (Test System: AMES SALMONELLA TYPHIMURIUM, Strain/Indicator: TA1537, Metabolic Activation: HAMSTER, LIVER, S-9, AROCLOR 1254 (10 OR 30%), Method: PREINCUBATION) “inactive; negative”; (Test System: AMES SALMONELLA TYPHIMURIUM, Strain/Indicator: TA1537, Metabolic Activation: NONE, Method: PREINCUBATION) “inactive; negative”; (Test System: AMES SALMONELLA TYPHIMURIUM, Strain/Indicator: TA1537, Metabolic Activation: RAT, LIVER, S-9, AROCLOR 1254 (10 OR 30%), Method: PREINCUBATION) “inactive; negative”; (Test System: E. coli, Strain/Indicator: YG5190 (WP2 uvrA/pKM101 deficient in mutM gene), Metabolic Activation: None, Method: Preincubation) “inactive; negative. addition of sodium nitrite (100 ug/plate) increased mutagenic response”. The mutagenic call by setting is: (Test System: E. coli, Strain/Indicator: YG5190 (WP2 uvrA/pKM101 deficient in mutM gene), Metabolic Activation: S9, Method: Preincubation) “inactive; negative. addition of sodium nitrite (100 ug/plate) increased mutagenic response”; (Test System: HCT116 COLON CANCER CELLS, Strain/Indicator: HCT116 CELLS (HPRT)/6-THIOGUANINE, Metabolic Activation: NONE, Method: STANDARD PLATE) “inactive; negative”.
Turning to `O=[N+]([O-])c1ccc2c(c1)CCc1cc3c(cc1-2)CCc1ccccc1-3`, the mutagenic call is “active; positive” (Test System: AMES SALMONELLA TYPHIMURIUM, Strain/Indicator: TA98(1,8-DNP6), Metabolic Activation: NONE); “active; positive” (Test System: AMES SALMONELLA TYPHIMURIUM, Strain/Indicator: TA98(1,8-DNP6), Metabolic Activation: RAT, LIVER, S-9, AROCLOR 1254); “active; positive” (Test System: AMES SALMONELLA TYPHIMURIUM, Strain/Indicator: TA98(NR), Metabolic Activation: NONE); “active; positive” (Test System: AMES SALMONELLA TYPHIMURIUM, Strain/Indicator: TA98(NR), Metabolic Activation: RAT, LIVER, S-9, AROCLOR 1254); “active; positive” (Test System: AMES SALMONELLA TYPHIMURIUM, Strain/Indicator: TA98, Metabolic Activation: NONE); “active; positive” (Test System: AMES SALMONELLA TYPHIMURIUM, Strain/Indicator: TA98, Metabolic Activation: RAT, LIVER, S-9, AROCLOR 1254). Besides, the mutagenic call runs as follows: (Test System: AMES SALMONELLA TYPHIMURIUM, Strain/Indicator: TA100(NR), Metabolic Activation: NONE) “inactive; negative”; (Test System: AMES SALMONELLA TYPHIMURIUM, Strain/Indicator: TA100(NR), Metabolic Activation: RAT, LIVER, S-9, AROCLOR 1254) “active; positive”; (Test System: AMES SALMONELLA TYPHIMURIUM, Strain/Indicator: TA100, Metabolic Activation: NONE) “active; positive”; (Test System: AMES SALMONELLA TYPHIMURIUM, Strain/Indicator: TA100, Metabolic Activation: RAT, LIVER, S-9, AROCLOR 1254) “active; positive”; (Test System: AMES SALMONELLA TYPHIMURIUM, Strain/Indicator: TA104, Metabolic Activation: NONE) “active; positive”; (Test System: AMES SALMONELLA TYPHIMURIUM, Strain/Indicator: TA104, Metabolic Activation: RAT, LIVER, S-9, AROCLOR 1254) “active; positive”.
